In patent publication US10273236B2, “Macrocyclic factor XIa inhibitors bearing heterocyclic groups” (Bristol-Myers Squibb Company, priority 2014, dated 2019):
Counter-ions that a name gives are not always drawn.

Tests used:
[1] = molecular target: T1, purified human plasma kallikrein (Homo sapiens, UniProt P03952); assay: Plasma kallikrein inhibition assay, chromogenic substrate S-2302 (Ki); type: biochemical
T1 construct: Plasma prekallikrein is a zymogen of a trypsin-like serine protease; purchased Enzyme Research Laboratories
Protocol: (§1) The effectiveness of compounds of the present invention as inhibitors of the coagulation Factors XIa, VIIa, IXa, Xa, XIIa, plasma kallikrein or thrombin, can be determined using a relevant purified serine protease, respectively, and an appropriate synthetic substrate. The rate of hydrolysis of the chromogenic or fluorogenic substrate by the relevant serine protease was measured both in the absence and presence of compounds of the present invention. […] A decrease in the rate of absorbance or fluorescence change in the presence of inhibitor is indicative of enzyme inhibition. Such methods are known to one skilled in the art. The results of this assay are expressed as the inhibitory constant, Ki.
Plasma kallikrein determinations were made in 0.1 M sodium phosphate buffer at a pH of 7.5 containing 0.1-0.2 M sodium chloride and 0.5% PEG 8000. Determinations were made using purified human plasma kallikrein (Enzyme Research Laboratories) at a final assay concentration of 200 pM and the synthetic substrate S-2302 (H-(D)-Pro-Phe-Arg-pNA; Chromogenix) at a concentration of 0.00008-0.0004 M.
(§2) Values of Ki were determined by allowing the protease to react with the substrate in the presence of the inhibitor.
(§3) Reactions were allowed to go for periods of 20-180 minutes (depending on the protease) and the velocities (rate of absorbance or fluorescence change versus time) were measured.
(§4) The following relationships were used to calculate Ki values: (Vmax*S)/(Km+S) (vo−vs)/vs=I/(Ki(1+S/Km)) for a competitive inhibitor with one binding site; or vs/vo=A+((B−A)/1+((IC50/(I)^n))); and Ki=IC50/(1+S/Km) for a competitive inhibitor where: […]

[2] = molecular target: T2, purified human Factor XIa (Homo sapiens, UniProt P03951); assay: Factor XIa inhibition assay, chromogenic substrate S-2366 (Ki); type: biochemical
T2 construct: purchased Haematologic Technologies
Protocol: as §1
Factor XIa determinations were made in 50 mM HEPES buffer at pH 7.4 containing 145 mM NaCl, 5 mM KCl, and 0.1% PEG 8000 (polyethylene glycol; JT Baker or Fisher Scientific). Determinations were made using purified human Factor XIa at a final concentration of 25-200 pM (Haematologic Technologies) and the synthetic substrate S-2366 (pyroGlu-Pro-Arg-pNA; Chromogenix or AnaSpec) at a concentration of 0.0002-0.001 M.
as §2, §3, §4

T2 sequence (P03951 388-625 limits assumed): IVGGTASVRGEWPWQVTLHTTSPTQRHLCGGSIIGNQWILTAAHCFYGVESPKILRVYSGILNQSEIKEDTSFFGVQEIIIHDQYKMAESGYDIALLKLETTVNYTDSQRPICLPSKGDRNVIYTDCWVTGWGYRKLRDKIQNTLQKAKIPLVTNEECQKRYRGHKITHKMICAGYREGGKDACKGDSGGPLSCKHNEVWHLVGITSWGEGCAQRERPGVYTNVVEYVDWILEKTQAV
T2 sequence (P03951 19-387 partner limits assumed): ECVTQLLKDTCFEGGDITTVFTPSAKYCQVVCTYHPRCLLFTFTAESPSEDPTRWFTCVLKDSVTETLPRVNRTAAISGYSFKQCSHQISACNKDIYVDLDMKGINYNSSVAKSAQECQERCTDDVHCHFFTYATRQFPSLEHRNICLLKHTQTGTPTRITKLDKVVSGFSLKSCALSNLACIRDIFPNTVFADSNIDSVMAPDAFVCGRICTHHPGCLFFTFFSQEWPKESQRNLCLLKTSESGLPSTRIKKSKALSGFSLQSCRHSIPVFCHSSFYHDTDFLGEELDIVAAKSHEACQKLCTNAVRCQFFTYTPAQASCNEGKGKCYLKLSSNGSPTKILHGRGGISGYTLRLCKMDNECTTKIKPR
T1 sequence (P03952 391-638 limits assumed): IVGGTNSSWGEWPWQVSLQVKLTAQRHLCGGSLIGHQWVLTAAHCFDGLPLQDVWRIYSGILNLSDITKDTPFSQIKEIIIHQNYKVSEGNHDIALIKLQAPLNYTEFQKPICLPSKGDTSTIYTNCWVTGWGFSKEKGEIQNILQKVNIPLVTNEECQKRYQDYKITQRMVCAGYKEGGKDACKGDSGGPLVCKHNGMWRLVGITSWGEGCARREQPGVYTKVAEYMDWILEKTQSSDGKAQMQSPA
T1 sequence (P03952 20-390 partner limits assumed): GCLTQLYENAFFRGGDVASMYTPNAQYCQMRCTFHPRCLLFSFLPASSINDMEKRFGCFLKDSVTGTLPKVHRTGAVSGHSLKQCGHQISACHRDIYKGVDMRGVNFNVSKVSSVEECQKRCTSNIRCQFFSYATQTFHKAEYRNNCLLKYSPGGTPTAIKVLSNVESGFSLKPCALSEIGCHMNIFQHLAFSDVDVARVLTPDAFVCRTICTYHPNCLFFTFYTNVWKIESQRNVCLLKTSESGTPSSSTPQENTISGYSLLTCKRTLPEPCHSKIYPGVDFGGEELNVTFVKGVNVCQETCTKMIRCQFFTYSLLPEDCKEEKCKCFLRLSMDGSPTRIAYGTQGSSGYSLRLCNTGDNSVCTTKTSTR

`C[C@@H]1CCC[C@H](n2ccc(-c3c(Cl)ccc(Cl)c3F)cc2=O)c2cc(ccn2)-c2c(cnn2C)NC1=O` [Example 44, (9R,13S)-13-[4-(3,6-dichloro-2-fluorophenyl)-2-oxo-1,2-dihydropyridin-1-yl]-3,9-dimethyl-3,4,7,15-tetraazatricyclo[12.3.1.0^2,6]octadeca-1(18),2(6),4,14,16-pentaen-8-one] was tested, and the Ki [1] was 5.7 nM and the Ki [2] was 2.2 nM.
Work on `C[C@@H]1CCC[C@H](n2ccc(-c3cc(Cl)ccc3C#N)cc2=O)c2cc(ccn2)-c2c(cnn2C(F)F)NC1=O` [Example 4, 4-chloro-2-{1-[(9R,13S)-3-(difluoromethyl)-9-methyl-8-oxo-3,4,7,15-tetraazatricyclo[12.3.1.0^2,6]octadeca-1(18),2(6),4,14,16-pentaen-13-yl]-2-oxo-1,2-dihydropyridin-4-yl}benzonitrile] yielded a Ki [1] of 19 nM and a Ki [2] of 3.2 nM.
`C[C@@H]1CCC[C@H](N2CCC(c3c(C(F)(F)F)ccc(Cl)c3F)=CC2=O)c2cc(ccn2)-c2c(cnn2C)NC1=O` [Example 6] was tested, and the Ki [1] was 7 nM and the Ki [2] was 1.7 nM.
`C[C@@H]1CCC[C@H](N2CCC(c3cc(Cl)ccc3-n3cc(Cl)nn3)=CC2=O)c2cccc(c2)-c2c(cnn2C)NC1=O` [Example 48, (9R,13S)-13-{4-[5-chloro-2-(4-chloro-1H-1,2,3-triazol-1-yl)phenyl]-6-oxo-1,2,3,6-tetrahydropyridin-1-yl}-3,9-dimethyl-3,4,7-triazatricyclo[12.3.1.0^2,6]octadeca-1(18),2(6),4,14,16-pentaen-8-one] was tested, and the Ki [1] was 5.5 nM and the Ki [2] was 0.13 nM.
In the case of `C[C@@H]1CCC[C@H](N2CCC(c3c(C(F)(F)F)ccc(Cl)c3F)=CC2=O)c2cc(ccn2)-c2nn(-c3cncnc3)cc2NC1=O` [Example 47, (9R,13S)-13-{4-[3-chloro-2-fluoro-6-(trifluoromethyl)phenyl]-6-oxo-1,2,3,6-tetrahydropyridin-1-yl}-9-methyl-4-(pyrimidin-5-yl)-3,4,7,15-tetraazatricyclo[12.3.1.0^2,6]octadeca-1(18),2,5,14,16-pentaen-8-one], the Ki [1] is reported as 13 nM and the Ki [2] is reported as 5.4 nM.
Compound `C[C@@H]1CCC[C@H](N2CCC(c3cc(Cl)ccc3-n3ccnn3)=CC2=O)c2cc(ccn2)-c2c(cnn2C(F)F)NC1=O` [Example 53, (9R)-13-{4-[5-chloro-2-(1H-1,2,3-triazol-1-yl)phenyl]-6-oxo-1,2,3,6-tetrahydropyridin-1-yl}-3-(difluoromethyl)-9-methyl-3,4,7,15-tetraazatricyclo[12.3.1.0^2,6]octadeca-1(18),2(6),4,14,16-pentaen-8-one] has a Ki [1] of 37 nM and a Ki [2] of 0.87 nM.
Compound `C[C@@H]1CCC[C@H](N2CCC(c3c(Cl)ccc(Cl)c3F)=CC2=O)c2cc(ccn2)-c2c(cnn2C(F)F)NC1=O` [Example 31, (9R,13S)-13-[4-(3,6-dichloro-2-fluorophenyl)-6-oxo-1,2,3,6-tetrahydropyridin-1-yl]-3-(difluoromethyl)-9-methyl-3,4,7,15-tetraazatricyclo [12.3.1.0^2,6]octadeca-1(18),2(6),4,14,16-pentaen-8-one] has a Ki [1] of 11 nM and a Ki [2] of 1.9 nM.
`C[C@@H]1CCC[C@H](N2CCC(c3c(C(F)(F)F)ccc(Cl)c3F)=CC2=O)c2cc(ccn2)-c2c(cnn2C2CC2)NC1=O` [Example 60, (9R,13S)-13-{4-[3-chloro-2-fluoro-6-(trifluoromethyl)phenyl]-6-oxo-1,2,3,6-tetrahydropyridin-1-yl}-3-cyclopropyl-9-methyl-3,4,7,15-tetraazatricyclo[12.3.1.0^2,6]octadeca-1(18),2(6),4,14,16-pentaen-8-one] showed a Ki [1] of 22 nM and a Ki [2] of 7.2 nM.
`C[C@@H]1CCC[C@H](N2CCC(c3cc(Cl)ccc3C#N)=CC2=O)c2cc(ccn2)-c2c(cnn2C)NC1=O` [Example 57, 4-chloro-2-{1-[(9R,13S)-3,9-dimethyl-8-oxo-3,4,7,15-tetraazatricyclo[12.3.1.0^2,6]octadeca-1(18),2(6),4,14,16-pentaen-13-yl]-6-oxo-1,2,3,6-tetrahydropyridin-4-yl}benzonitrile] was tested, and the Ki [1] was 14 nM and the Ki [2] was 4 nM.
For `C[C@@H]1CCC[C@H](N2CCC(c3cc(Cl)ccc3-n3cc(Cl)nn3)=CC2=O)c2cc(ccn2)-c2c(cnn2CC(F)F)NC1=O` [Example 52, (9R,13S)-13-{4-[5-chloro-2-(4-chloro-1H-1,2,3-triazol-1-yl)phenyl]-6-oxo-1,2,3,6-tetrahydropyridin-1-yl}-3-(2,2-difluoroethyl)-9-methyl-3,4,7,15-tetraazatricyclo[12.3.1.0^2,6]octadeca-1(18),2(6),4,14,16-pentaen-8-one], the Ki [1] was 22 nM and the Ki [2] was 0.76 nM.
For `C[C@@H]1CCC[C@H](N2CCC(c3c(OC(F)F)ccc(Cl)c3F)=CC2=O)c2cc(ccn2)-c2c(cnn2C)NC1=O` [Example 23, (9R,13S)-13-{4-[3-chloro-6-(difluoromethoxy)-2-fluorophenyl]-6-oxo-1,2,3,6-tetrahydropyridin-1-yl}-3,9-dimethyl-3,4,7,15-tetraazatricyclo[12.3.1.0^2,6]octadeca-1(18),2(6),4,14,16-pentaen-8-one], the Ki [1] was 7 nM and the Ki [2] was 0.92 nM.
`C[C@@H]1CCC[C@H](N2CCC(c3cc(Cl)ccc3-n3cc(Cl)nn3)=CC2=O)c2cc(ccn2)-c2c(cnn2CC(=O)O)NC1=O` [Example 16, 2-[(9R,13S)-13-{4-[5-chloro-2-(4-chloro-1H-1,2,3-triazol-1-yl)phenyl]-6-oxo-1,2,3,6-tetrahydropyridin-1-yl}-9-methyl-8-oxo-3,4,7,15-tetraazatricyclo [12.3.1.0^2,6]octadeca-1(18),2(6),4,14,16-pentaen-3-yl]acetic acid] gave a Ki [1] of 17 nM and a Ki [2] of 0.19 nM.
In the case of `C[C@@H]1CCC[C@H](N2CCC(c3cc(Cl)ccc3-n3ccnn3)=CC2=O)c2cc(ccn2)-c2c(cnn2C2CCC2)NC1=O` [Example 54, (9R,13S)-13-{4-[5-chloro-2-(1H-1,2,3-triazol-1-yl)phenyl]-6-oxo-1,2,3,6-tetrahydropyridin-1-yl}-3-cyclobutyl-9-methyl-3,4,7,15-tetraazatricyclo[12.3.1.0^2,6]octadeca-1(18),2(6),4,14,16-pentaen-8-one], the Ki [1] is reported as 150 nM and the Ki [2] is reported as 7.1 nM.
`C[C@@H]1CCC[C@H](n2ccc(-c3c(OC(F)F)ccc(Cl)c3F)cc2=O)c2cc(ccn2)-c2c(cnn2C)NC1=O` [Example 27, (9R,13S)-13-{4-[3-chloro-6-(difluoromethoxy)-2-fluorophenyl]-2-oxo-1,2-dihydropyridin-1-yl}-3,9-dimethyl-3,4,7,15-tetraazatricyclo[12.3.1.0^2,6]octadeca-1(18),2(6),4,14,16-pentaen-8-one trifluoroacetate] was tested, and the Ki [1] was 40 nM and the Ki [2] was 4.9 nM.
In the case of `C[C@@H]1CCC[C@H](N2CCC(c3cc(Cl)ccc3-n3cc(Cl)nn3)=CC2=O)c2cc(F)cc(c2)-c2c(cnn2C)NC1=O` [Example 59, (9R,13S)-13-{4-[5-chloro-2-(4-chloro-1H-1,2,3-triazol-1-yl)phenyl]-6-oxo-1,2,3,6-tetrahydropyridin-1-yl}-16-fluoro-3,9-dimethyl-3,4,7-triazatricyclo[12.3.1.0^2,6]octadeca-1(18),2(6),4,14,16-pentaen-8-one], the Ki [1] is reported as 4 nM and the Ki [2] is reported as 0.1 nM.
With `C[C@@H]1CCC[C@H](N2CCC(c3cc(Cl)ccc3-n3cc(Cl)nn3)=CC2=O)c2cc(ccn2)-c2c(cnn2CCO)NC1=O` [Example 35, (9R,13S)-13-{4-[5-chloro-2-(4-chloro-1H-1,2,3-triazol-1-yl)phenyl]-6-oxo-1,2,3,6-tetrahydropyridin-1-yl}-3-(2-hydroxyethyl)-9-methyl-3,4,7,15-tetraazatricyclo[12.3.1.0^2,6]octadeca-1(18),2(6),4,14,16-pentaen-8-one] the Ki [1] was 32 nM and the Ki [2] was 0.82 nM.
`CC(C)[C@@H]1CCC[C@H](N2CCC(c3cc(Cl)ccc3-n3cc(Cl)nn3)=CC2=O)c2cc(ccn2)-c2c(cnn2C)NC1=O` [Example 25, (9S,13S)-13-{4-[5-chloro-2-(4-chloro-1H-1,2,3-triazol-1-yl)phenyl]-6-oxo-1,2,3,6-tetrahydropyridin-1-yl}-3-methyl-9-(propan-2-yl)-3,4,7,15-tetraazatricyclo[12.3.1.0^2,6]octadeca-1(18),2(6),4,14,16-pentaen-8-one] was tested, and the Ki [1] was 16 nM and the Ki [2] was 0.47 nM.
Compound `CCn1ncc2c1-c1ccnc(c1)[C@@H](N1CCC(c3c(F)ccc(Cl)c3F)=CC1=O)CCC[C@@H](C)C(=O)N2` [Example 10, (9R,13S)-13-[4-(3-chloro-2,6-difluorophenyl)-6-oxo-1,2,3,6-tetrahydropyridin-1-yl]-3-ethyl-9-methyl-3,4,7,15-tetraazatricyclo[12.3.1.0^2,6]octadeca-1(18),2(6),4,14,16-pentaen-8-one] has a Ki [1] of 50 nM and a Ki [2] of 14 nM.
